From patent publication US20250353873A1, “COMPOUNDS AND METHODS FOR MODULATING APOE EXPRESSION” (Ionis Pharmaceuticals, Inc., priority 2024, published 2025)
Strand notation (5' to 3'): a small letter for the sugar, then the base; units joined by * are phosphorothioate-linked, units joined directly phosphodiester-linked; [ ] holds rarer units or linkages, { } end groups; capitals alone tell only the bases. [ms] = mesyl phosphoramidate linkage; e = 2'-O-(2-methoxyethyl) (MOE); k = constrained ethyl (cEt); [5mC] = 5-methylcytosine; d = 2'-deoxy (DNA)

Tests used:
human APOE RNA [1] = test: Dose-dependent inhibition of human APOE RNA in HepG2 cells, electroporation, 50,000 cells per well, RT-PCR normalized to GAPDH (Example 4, Tables 8-10); assay type: cell-based; details: HepG2, electroporation, 16-hour treatment
Procedure, shortened: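 Readout is percent APOE RNA versus untreated controls, measured by RT-PCR (primer probe set RTS3073) and normalized to human GAPDH. Modified oligonucleotides were delivered by electroporation at varying doses into HepG2 cells plated at 50,000 per well.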

human APOE RNA [2] = test: Activity in APOE C57BL/6NTac-Apoeem7250 knock-in mice, single ICV bolus, 20 weeks (Example 13); assay type: in vivo; details: single ICV bolus 300 μg, 20 weeks post treatment, normalized to mouse Ppia
Procedure, shortened: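 Cortical and spinal cord RNA was assayed by real-time RT-PCR for human APOE, normalized to mouse Ppia and reported as percent of PBS controls. Tissue was taken twenty weeks after one 300 μg intracerebroventricular bolus in APOE knock-in mice, 4 per group.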

human APOE RNA [3] = test: Activity in APOE C57BL/6NTac-Apoeem7250 knock-in mice, single ICV bolus, 4 weeks (Example 10); assay type: in vivo; details: single ICV bolus 300 μg, 4 weeks post treatment, normalized to mouse Ppia
Procedure, shortened: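 Human APOE RNA, quantified by real-time RT-PCR with RTS3073 and normalized to mouse Ppia, was read in cortical brain and spinal cord 4 weeks post dosing. Dosing was a single ICV bolus of 300 μg per knock-in mouse; values are % of PBS-treated animals.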

human APOE RNA [4] = test: Activity in APOE C57BL/6NTac-Apoeem7250 knock-in mice, single ICV bolus, 16 weeks (Example 12); assay type: in vivo; details: single ICV bolus 300 μg, 16 weeks post treatment, normalized to mouse Ppia
Procedure, shortened: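 A single 300 μg intracerebroventricular dose was given, with PBS-treated mice as reference; cortical and spinal cord tissue was taken 16 weeks later. RT-qPCR quantified human APOE RNA, Ppia-normalized, expressed relative to PBS animals (% control).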

human APOE RNA [5] = test: Activity in APOE C57BL/6NTac-Apoeem7250 knock-in mice, single ICV bolus, 8 weeks (Example 11); assay type: in vivo; details: single ICV bolus 300 μg, 8 weeks post treatment, normalized to mouse Ppia
Procedure, shortened: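 Cortical and spinal cord human APOE RNA quantified by RT-qPCR 8 weeks after a single 300 μg ICV dose in knock-in mice, Ppia-normalized. Values are percent of levels in PBS-treated animals.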

Row | Substance | APOE RNA (% UTC) (human APOE RNA [1]; 5 nM) | APOE RNA (% UTC) (human APOE RNA [1]; 33 nM) | APOE RNA (% UTC) (human APOE RNA [1]; 82 nM) | APOE RNA (% UTC) (human APOE RNA [1]; 205 nM) | APOE RNA (% UTC) (human APOE RNA [1]; 512 nM) | APOE RNA (% UTC) (human APOE RNA [1]; 1,280 nM) | APOE RNA (% UTC) (human APOE RNA [1]; 3,200 nM) | APOE RNA (% UTC) (human APOE RNA [1]; 8,000 nM) | APOE RNA (% UTC) (human APOE RNA [1]; 20,000 nM) | IC50 (human APOE RNA [1]) [nM] | APOE RNA (% control) Cortex (human APOE RNA [2]) [% control] | APOE RNA (% control) Spinal Cord (human APOE RNA [2]) [% control] | APOE RNA (% control) Cortex (human APOE RNA [3]) [% control] | APOE RNA (% control) Spinal Cord (human APOE RNA [3]) [% control] | APOE RNA (% control) Cortex (human APOE RNA [4]) [% control] | APOE RNA (% control) Spinal Cord (human APOE RNA [4]) [% control] | APOE RNA (% control) Cortex (human APOE RNA [5]) [% control] | APOE RNA (% control) Spinal Cord (human APOE RNA [5]) [% control] | APOE RNA (% UTC) (human APOE RNA [1]; 13 nM)
1 | 1766559 (eT*eTeGeGeT*dG[ms]dA[ms]dA[ms]dT*d[5mC]*dT*dT*dT[ms]dA[ms]dT*kTkAeA*eA*e[5mC]; antisense) [Compound 1766559] | 166 | 65 | 47 | 46 | 41 | 30 | 21 | 35 | 36 | 340 | 100 | 74 | 79 | 81 | – | – | – | – | –
2 | 1778117 (eA*e[5mC]eTeTeG*eG*dT*dG[ms]dA[ms]dA*dT*d[5mC]*dT*dT*dT*dA[ms]kT*eT*eA*eA; antisense) [Compound 1778117] | – | – | – | – | – | – | – | – | – | – | 72 | 36 | 46 | 114 | 65 | 36 | 49 | 28 | –
3 | 1778112 (eA*e[5mC]eTeTeGkG*dT*dG[ms]dA[ms]dA*dT*d[5mC]*dT*dT*dT*dA[ms]eTeT*eA*eA; antisense) [Compound 1778112] | – | – | – | – | – | – | – | – | – | – | 67 | 25 | 46 | 49 | 63 | 25 | 49 | 23 | –
4 | 1785619 (k[5mC]*dT[ms]dT[ms]kG*dG[ms]kT*dG*dA[ms]dA[ms]dT*d[5mC]*dT*dT*dT*dA[ms]dT*kT*kA*dA[ms]kA) [Compound 1785619] | – | – | – | – | – | – | – | – | – | – | 58 | 59 | 41 | 41 | 40 | 41 | 40 | 27 | –
5 | 1785616 (k[5mC]*dT[ms]dT[ms]kG*dG[ms]kT*dG[ms]dA[ms]dA[ms]dT*d[5mC]*dT*dT*dT*dA*dT[ms]kT*kA*dA[ms]kA; antisense) [Compound 1785616] | – | – | – | – | – | – | – | – | – | – | 77 | 57 | 47 | 66 | 47 | 34 | 47 | 27 | –
6 | 1785600 (k[5mC]*kT*kT*dG[ms]dG[ms]dT[ms]dG*dA*dA*dT*d[5mC]*dT[ms]dT[ms]dT[ms]dA*dT*kT*kA*dA[ms]kA; antisense) [Compound 1785600] | – | – | – | – | – | – | – | – | – | – | 60 | 33 | 46 | 51 | 39 | 30 | 36 | 26 | –
7 | 1778119 (eA*e[5mC]eTeTeG*eG*dT*dG[ms]dA[ms]dA*dT*d[5mC]*dT*dT*dT*dA[ms]kTeT*eA*eA; antisense) [Compound 1778119] | – | – | – | – | – | – | – | – | – | – | 84 | 51 | 45 | 56 | 62 | 38 | 52 | 27 | –
8 | 1778126 (eA*e[5mC]eTeTkG*kG*dT*dG[ms]dA[ms]dA*dT*d[5mC]*dT*dT*dT*dA[ms]kT*eT*eA*eA; antisense) [Compound 1778126] | – | – | – | – | – | – | – | – | – | – | 52 | 35 | 41 | 72 | 37 | 22 | 23 | 20 | –
9 | 1778120 (eA*e[5mC]eTeTeGeG*dT*dG[ms]dA[ms]dA*dT*d[5mC]*dT*dT*dT*dA[ms]kTeT*eA*eA; antisense) [Compound 1778120] | – | – | – | – | – | – | – | – | – | – | 78 | 44 | 47 | 58 | 75 | 46 | 57 | 24 | –
10 | 1778113 (eA*e[5mC]eTeTkG*kG*dT*dG[ms]dA[ms]dA*dT*d[5mC]*dT*dT*dT*dA[ms]eT*eT*eA*eA; antisense) [Compound 1778113] | – | – | – | – | – | – | – | – | – | – | 61 | 24 | 48 | 88 | 46 | 27 | 53 | 28 | –
11 | 1757572 (eA*e[5mC]eTeT*kG*kG*dT*dG[ms]dA[ms]dA[ms]dT*d[5mC]*dT*dT*dT*dA[ms]eT*eT*eA*eA; antisense) [Compound 1757572] | 114 | 107 | 96 | 83 | 67 | 66 | 51 | 26 | 10 | 2350 | 51 | 69 | 50 | 38 | – | – | – | – | 95
